Laboratory results taken from patent US20060068457A1, “Substrates for tafi (a)” (priority 2002, published 2006).

Columns and labels:
TAFIa = molecular target: T1, TAFIa (Homo sapiens, UniProt Q96IY4); assay: Splitting of thiaarginine and thialysine substrates by TAFIa (DTNB chromogenic enzyme assay); type: biochemical; conditions: substrate final concentration 174 μM, TAFIa final concentration 17 μg/ml, RT, 10 min
T1 construct: purchased Enzyme Research Laboratory
T1 sequence (Q96IY4 115-423): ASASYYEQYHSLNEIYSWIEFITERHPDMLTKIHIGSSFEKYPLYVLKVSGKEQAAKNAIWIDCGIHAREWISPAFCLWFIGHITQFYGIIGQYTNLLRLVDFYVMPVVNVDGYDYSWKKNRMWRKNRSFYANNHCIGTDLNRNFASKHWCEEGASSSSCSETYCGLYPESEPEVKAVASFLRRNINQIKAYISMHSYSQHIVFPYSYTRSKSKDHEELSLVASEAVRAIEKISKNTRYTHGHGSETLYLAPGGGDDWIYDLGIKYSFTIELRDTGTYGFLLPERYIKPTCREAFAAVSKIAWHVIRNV
Description: In a first step, the substrate is hydrolyzed by TAFIa in such a way that a thioamino acid (thiaarginine or thialysine) is released. These instable intermediates are rapidly decomposed into 2-mercaptoethylguanidine or […], respectively. These mercapto compounds react with Ellman's reagent (5,5′-dithio-bis-(2-nitrobenzoic acid)), thereby releasing the strongly yellow 3-carboxy-4-nitrothiophenol that can be measured using a spectrophotometer at 405-412 nm. The free thiol content measured is directly proportional to the quantity of substrate hydrolyzed by TAFIa and thereby allows a quantitative analysis of the enzyme activity.
Enzyme assay: The enzyme activity is measured at room temperature by using a 10 mM substrate stock solution in DMSO. TAFI of human origin can be obtained in a stock solution of 360 μg/ml from Enzyme Research Laboratory or over blood plasma. Activation of TAFI to TAFIa occurred with thrombin (2.7 U/ml), the activation of which was produced with 30 μg of thrombomodulin. Excessive thrombin activity was eliminated by adding the synthetic inhibitor NAPAP. The measurement was performed on microtiter plates.
The absorption increase at 405-412 nm was recorded for 10 minutes.
in buffer (20 mM HEPES, 5 mM CaCl2, 0.01% Tween 80; pH 7.4) • incubate for 5 min at 25° C.
(§1) • measure for 10 min at RT Results: • Splitting of thiaarginine and thialysine substrates (final concentration 174 μM) by TAFIa (final concentration 17 μg/ml) • in brackets the value for carboxypeptidase B • Substances of comparison A and B from Bull. Korean. Chem. Soc. 1998, 19(2), 189-193
(§2) ΔE=Extinction variation at 405 nm

carboxypeptidase B = molecular target: T2, carboxypeptidase B (Homo sapiens, UniProt P15086); assay: Splitting of thiaarginine and thialysine substrates by carboxypeptidase B; type: biochemical; conditions: substrate final concentration 174 μM
T2 sequence (P15086 111-417): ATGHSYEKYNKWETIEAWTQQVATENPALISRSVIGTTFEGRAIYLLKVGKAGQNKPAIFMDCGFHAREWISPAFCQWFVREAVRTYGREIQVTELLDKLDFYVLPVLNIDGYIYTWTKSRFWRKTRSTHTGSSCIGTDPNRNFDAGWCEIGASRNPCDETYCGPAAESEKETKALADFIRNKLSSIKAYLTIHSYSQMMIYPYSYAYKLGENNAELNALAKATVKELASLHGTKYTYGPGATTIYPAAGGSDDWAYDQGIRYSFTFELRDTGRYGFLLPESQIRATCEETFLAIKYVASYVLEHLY
Procedure: The thiaarginine derivatives of the following formulas A and B [drawing 2] have been described as substrates for carboxypeptidase B (Bull. Korean. Chem. Soc. 1998, 19(2), 189-193). […] Detection of CPB by means of compound A is carried out according to the following FIG. 1. [drawing]
as §1, §2

| Compound | ΔE/min (extinction variation at 405 nm), splitting by TAFIa (TAFIa) | ΔE/min (extinction variation at 405 nm), value in brackets for carboxypeptidase B (carboxypeptidase B) |
| --- | --- | --- |
| Boc-F-K(Boc)-G(GUS)-OH × HCl [No. 4298] | 0.043 | (0.034) |
| Boc-K(Tos)-G(GUS)-OH × HCl [No. 4273] | 0.014 | (0.048) |
| Boc-K(Z)-G(GUS)-OH × TFA [No. 4275] | 0.041 | (0.028) |
| Cl.NC(N)=NCCSC(NC(=O)[C@H](CCCCNC(=O)OCc1ccccc1)NC(=O)c1ccccc1)C(=O)O (stereo partly drawn) [No. 4269, benzoyl-(L)-lysyl-(E-benzyloxycarbonyl)-α-(D, L)-(2-guanidinoethylthio)-glycine hydrochloride salt] | 0.108 | (0.018) |
| Bz-P-K(Boc)-G(GUS)-OH × TFA [No. 4300] | 0.012 | (0.072) |

Further lines, results first:

| ΔE/min (extinction variation at 405 nm), splitting by TAFIa (TAFIa) | ΔE/min (extinction variation at 405 nm), value in brackets for carboxypeptidase B (carboxypeptidase B) | Compound |
| --- | --- | --- |
| 0.034 |  | Bz-V-G(GUS)-OH × TFA [No. 4334] |
| 0.042 | (0.059) | Z-A-K(Boc)-G(GUS)-OH × HCl [No. 4302] |
| 0.054 |  | Boc-K(Z)-G(α-SPrA)-OH × TFA [No. 4341] |
| 0.055 |  | NCCCSC(NC(=O)[C@H](CCCCNC(=O)OCc1ccccc1)NC(=O)c1ccccc1)C(=O)O.O=C(O)C(F)(F)F (stereo partly drawn) [No. 4339, benzoyl-(L)-lysyl-(F-benzyloxycarbonyl)-α-(D,L)-(3-aminopropylthio)-glycine trifluoracetic acid salt] |
| 0.053 |  | Bz-V-G(α-SPrA)-OH × TFA [No. 4336] |
